Laboratory results as given in patent US10045983B2, “Heteroaryl pyridone and aza-pyrodine compounds” (Genentech, Inc., priority 2011, dated 2018).

Assay: CD69 Whole Blood Assay (CD69 Hu Blood FACS)
Format: cell-based, human
Conditions: Lymphocyte; human whole blood, anti-IgM activated B lymphocytes, FACS; IC70; Table 1; read-out: CD69 Hu Blood FACS IC70
Procedure, shortened: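 Human whole blood stimulated by crosslinking surface IgM with goat F(ab′)2 anti-human IgM; inhibition of CD69 expression on B lymphocytes measured by flow cytometry.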

First: Cn1cc(-c2ccnc(N3CCn4c(cc5c4CCCC5)C3=O)c2CO)cc(Nc2nccnn2)c1=O [Example 172, 2-(4-(5-(1,2,4-triazin-3-ylamino)-1-methyl-6-oxo-1,6-dihydropyridin-3-yl)-3-(hydroxymethyl)pyridin-2-yl)-3,4,6,7,8,9-hexahydropyrazino[1,2-a]indol-1(2H)-one]
Second: Cn1cc(-c2ccnc(N3CCn4c(cc5c4CCCC5)C3=O)c2CO)cc(Nc2ccc(N3CCNCC3)cn2)c1=O [Example 127, 2-(3-(Hydroxymethyl)-4-(1-methyl-6-oxo-5-(5-(piperazin-1-yl)pyridin-2-ylamino)-1,6-dihydropyridin-3-yl)pyridin-2-yl)-3,4,6,7,8,9-hexahydropyrazino[1,2-a]indol-1(2H)-one]
The IC70 of the first is 35-fold higher: 5000 nM for the first, 141 nM for the second.

Cn1cc(-c2ccnc(N3CCn4c(cc5c4CCCC5)C3=O)c2CO)cc(Nc2cnc(N3CCN(C4COC4)CC3)cn2)c1=O [Example 189, 2-(3-(hydroxymethyl)-4-(1-methyl-5-(5-(4-(oxetan-3-yl)piperazin-1-yl)pyrazin-2-ylamino)-6-oxo-1,6-dihydropyridin-3-yl)pyridin-2-yl)-3,4,6,7,8,9-hexahydropyrazino[1,2-a]indol-1(2H)-one] and Cn1cc(-c2nccc(N3CCn4c(cc5c4CCCC5)C3=O)c2CO)cc(Nc2ccc(N3CCN(C4COC4)CC3)cn2)c1=O [Example 104, 2-(3-(Hydroxymethyl)-2-(1-methyl-5-(5-(4-(oxetan-3-yl)piperazin-1-yl)pyridin-2-ylamino)-6-oxo-1,6-dihydropyridin-3-yl)pyridin-4-yl)-3,4,6,7,8,9-hexahydropyrazino[1,2-a]indol-1(2H)-one] are within 1.5-fold of each other in IC70: 652 nM for the first, 793 nM for the second.

Compared with CN1CCn2nc(Nc3cc(-c4ccnc(N5CCc6c(cc7n6CCCC7)C5=O)c4CO)cn(C)c3=O)cc2C1 [Example 147, 2-(3-(Hydroxymethyl)-4-(1-methyl-5-(5-methyl-4,5,6,7-tetrahydro-pyrazolo[1,5-a]pyrazin-2-ylamino)-6-oxo-1,6-dihydropyridin-3-yl)pyridin-2-yl)-3,4,6,7,8,9-hexahydropyrido[3,4-b]indolizin-1(2H)-one], CN1CCn2nc(Nc3cc(-c4ccnc(N5CCn6c(cc7c6[C@H]6CC[C@@H]7C6)C5=O)c4CO)cn(C)c3=O)cc2C1 (stereo in doubt) [Example 167, 2-(3-(hydroxymethyl)-4-(1-methyl-5-(5-methyl-4,5,6,7-tetrahydropyrazolo[1,5-a]pyrazin-2-ylamino)-6-oxo-1,6-dihydropyridin-3-yl)pyridin-2-yl)-3,4,6,7,8,9-hexahydro-6,9-methanopyrazino[1,2-a]indol-1(2H)-one] is 2.7-fold lower in IC70: 320 nM for the first, 119 nM for the second.

C[C@H]1CN(C2COC2)CCN1c1ccc(Nc2cc(-c3ccnc(N4CCc5c(cc6n5CCCC6)C4=O)c3CO)cn(C)c2=O)nc1 [Example 149, 2-{3′-Hydroxymethyl-1-methyl-5-[5-((S)-2-methyl-4-oxetan-3-yl-piperazin-1-yl)-pyridin-2-ylamino]-6-oxo-1,6-dihydro-[3,4′]bipyridinyl-2′-yl}-2,3,5,6,7,8-hexahydro-4H-2,4b-diaza-fluoren-1-one] and Cn1cc(-c2ccnc(-n3ccn4c5c(cc4c3=O)CCCC5)c2CO)cc(Nc2ccc(N3CCN(C4COC4)CC3)cn2)c1=O [Example 121, 2-(3-(hydroxymethyl)-4-(1-methyl-5-(5-(4-(oxetan-3-yl)piperazin-1-yl)pyridine-2-ylamino)-6-oxo-1,6-dihydropyridin-3-yl)pyridin-2-yl)-6,7,8,9-tetrahydropyrazino[1,2-a]indol-1(2H)-one] are within 1.5-fold of each other in IC70: 45.4 nM for the first, 32.3 nM for the second.

Compared with Cn1cc(-c2ccnc(N3CCn4c(cc5c4CC(C)(C)C5)C3=O)c2CO)cc(Nc2cc3n(n2)CCN(C2COC2)C3)c1=O [Example 163, 2-[3′-Hydroxymethyl-1-methyl-5-(5-oxetan-3-yl-4,5,6,7-tetrahydro-pyrazolo[1,5-a]pyrazin-2-ylamino)-6-oxo-1,6-dihydro-[3,4′]bipyridinyl-2′-yl]-7,7-dimethyl-3,4,7,8-tetrahydro-2H,6H-cyclopenta[4,5]pyrrolo[1,2-a]pyrazin-1-one], Cn1cc(-c2ccnc(N3CCn4c(cc5c4CCCC5)C3=O)c2CO)cc(Nc2ccc(C(=O)N3CCOCC3)cn2)c1=O [Example 111, 2-(3-(Hydroxymethyl)-4-(1-methyl-5-(5-(morpholine-4-carbonyl)pyridin-2-ylamino)-6-oxo-1,6-dihydropyridin-3-yl)pyridin-2-yl)-3,4,6,7,8,9-hexahydropyrazino[1,2-a]indol-1(2H)-one] is 5.7-fold higher in IC70: 22.8 nM for the first, 131 nM for the second.

First: C[C@@H]1CN(c2ccc(Nc3cc(-c4ccnc(-n5ccn6c7c(cc6c5=O)CCCC7)c4CO)cn(C)c3=O)nc2)[C@@H](C)CN1C1COC1 [Example 160, 2-{5-[5-((2S, 5R)-2,5-Dimethyl-4-oxetan-3-yl-piperazin-1-yl)-pyridin-2-ylamino]-3′-hydroxymethyl-1-methyl-6-oxo-1,6-dihydro-[3,4′]bipyridinyl-2′-yl}-6,7,8,9-tetrahydro-2H-pyrazino[1,2-a]indol-1-one]
Second: Cn1cc(-c2ccnc(N3CCn4c5c(c(F)c4C3=O)CCCC5)c2CO)cc(Nc2ccncn2)c1=O [Example 146, 10-Fluoro-2-(3-(hydroxymethyl)-4-(1-methyl-6-oxo-5-(pyrimidin-4-ylamino)-1,6-dihydropyridin-3-yl)pyridin-2-yl)-3,4,6,7,8,9-hexahydropyrazino[1,2-a]indol-1(2H)-one]
The IC70 of the first is 1.6-fold lower: 54.7 nM for the first, 85.6 nM for the second.

For Cn1cc(-c2ccnc(N3CCc4c(sc5c4CC(C)(C)C5)C3=O)c2CO)cc(Nc2cnccn2)c1=O [Example 184, 6-[3′-Hydroxymethyl-1-methyl-6-oxo-5-(pyrazin-2-ylamino)-1,6-dihydro-[3,4′]bipyridinyl-2′-yl]-2,2-dimethyl-2,3,5,6-tetrahydro-1H,4H-8-thia-6-aza-cyclopenta[a]inden-7-one], the IC70 was 601 nM.

Same assay, conditions: Lymphocyte; human whole blood, anti-IgM activated B lymphocytes, FACS; IC70; Table 2 (unit inferred); read-out: CD69 Hu Blood FACS (IC70)

Cn1cc(-c2ccnc(N3CCn4c(cc5c4CC(C)(C)C5)C3=O)c2CO)cc(Nc2ccc(N3CC(O)C3)cn2)c1=O [Example 314, 3-[4-[5-[[5-(3-hydroxyazetidin-1-yl)-2-pyridyl]amino]-1-methyl-6-oxo-3-pyridyl]-3-(hydroxymethyl)-2-pyridyl]-7,7-dimethyl-1,2,6,8-tetrahydrocyclopenta[3,4]pyrrolo[3,5-b]pyrazin-4-one] and CN1CCC(c2ccc(Nc3cc(-c4ccnc(N5CCn6c(cc7c6CC(C)(C)C7)C5=O)c4CO)cn(C)c3=O)nc2)CC1 [Example 236, 3-[3-(hydroxymethyl)-4-[1-methyl-5-[[5-(1-methyl-4-piperidyl)-2-pyridyl]amino]-6-oxo-3-pyridyl]-2-pyridyl]-7,7-dimethyl-1,2,6,8-tetrahydrocyclopenta[3,4]pyrrolo[3,5-b]pyrazin-4-one] are within 1.5-fold of each other in IC70: 44.6 nM for the first, 33.6 nM for the second.

Compared with CCN1CCn2nc(Nc3cc(-c4ccnc(N5CCc6c(cc7n6CCCC7)C5=O)c4CO)cn(C)c3=O)cc2C1 [Example 208, 2-[4-[5-[(5-ethyl-6,7-dihydro-4H-pyrazolo[1,5-a]pyrazin-2-yl)amino]-1-methyl-6-oxo-3-pyridyl]-3-(hydroxymethyl)-2-pyridyl]-3,4,6,7,8,9-hexahydropyrido[3,4-b]indolizin-1-one], COCCCN1CCn2nc(Nc3cc(-c4ccnc(N5CCn6c(cc7c6CC(C)(C)C7)C5=O)c4CO)cn(C)c3=O)cc2C1 [Example 309, 3-[3-(hydroxymethyl)-4-[5-[[5-(3-methoxypropyl)-6,7-dihydro-4H-pyrazolo[1,5-a]pyrazin-2-yl]amino]-1-methyl-6-oxo-3-pyridyl]-2-pyridyl]-7,7-dimethyl-1,2,6,8-tetrahydrocyclopenta[3,4]pyrrolo[3,5-b]pyrazin-4-one] is 15-fold lower in IC70: 580 nM for the first, 39.8 nM for the second.

First: Cn1cc(-c2ccnc(N3CCn4c(cc5c4CC(C)(C)C5)C3=O)c2CO)cc(Nc2cc(-c3ccccc3)on2)c1=O [Example 299, 3-[3-(hydroxymethyl)-4-[1-methyl-6-oxo-5-[(5-phenylisoxazol-3-yl)amino]-3-pyridyl]-2-pyridyl]-7,7-dimethyl-1,2,6,8-tetrahydrocyclopenta[3,4]pyrrolo[3,5-b]pyrazin-4-one]
Second: Cn1cc(-c2ccnc(N3CCn4c(cc5c4CC(C)(C)C5)C3=O)c2CO)cc(Nc2cc(C(C)(C)C)on2)c1=O [Example 294, 3-[4-[5-[(5-tert-butylisoxazol-3-yl)amino]-1-methyl-6-oxo-3-pyridyl]-3-(hydroxymethyl)-2-pyridyl]-7,7-dimethyl-1,2,6,8-tetrahydrocyclopenta[3,4]pyrrolo[3,5-b]pyrazin-4-one]
The IC70 of the first is 7.6-fold higher: 2100 nM for the first, 276 nM for the second.

Compared with COCCN1CCn2nc(Nc3cc(-c4ccnc(N5CCn6c(cc7c6CC(C)(C)C7)C5=O)c4CO)nn(C)c3=O)cc2C1 [Example 305, 3-[3-(hydroxymethyl)-4-[5-[[5-(2-methoxyethyl)-6,7-dihydro-4H-pyrazolo[1,5-a]pyrazin-2-yl]amino]-1-methyl-6-oxo-pyridazin-3-yl]-2-pyridyl]-7,7-dimethyl-1,2,6,8-tetrahydrocyclopenta[3,4]pyrrolo[3,5-b]pyrazin-4-one], COCCN1CCn2nc(Nc3cc(-c4ccnc(N5CCn6c(cc7c6CC(C)(C)C7)C5=O)c4CO)c(C)n(C)c3=O)cc2C1 [Example 327, 3-[3-(hydroxymethyl)-4-[5-[[5-(2-methoxyethyl)-6,7-dihydro-4H-pyrazolo[1,5-a]pyrazin-2-yl]amino]-1,2-dimethyl-6-oxo-3-pyridyl]-2-pyridyl]-7,7-dimethyl-1,2,6,8-tetrahydrocyclopenta[3,4]pyrrolo[3,5-b]pyrazin-4-one] is 26-fold higher in IC70: 83.2 nM for the first, 2200 nM for the second.

Cc1cc(Nc2cc(-c3ccnc(-n4ncc5c6c(sc5c4=O)CCCC6)c3CO)cn(C)c2=O)no1 [Example 291, 3-[3-(hydroxymethyl)-4-[1-methyl-5-[(5-methylisoxazol-3-yl)amino]-6-oxo-3-pyridyl]-2-pyridyl]-6,7,8,9-tetrahydrobenzothiopheno[2,3-d]pyridazin-4-one] gave an IC70 of 843 nM.
